We go through two compounds from patent US20210196738A1, “PHARMACEUTICAL COMPOSITION COMPRISING A COLLOIDAL DISPERSION AND A THERAPEUTIC AGENT AND METHODS AND USES THEREOF” (priority 2017, published 2021).

For orientation: MIC means the least concentration at which growth counts as inhibited.

Assay [1] concerns E. coli K-12 MG1655 (DA4201). The experiment in a line: AgSol-antibiotic synergy screening assay / MIC (Ag/Antibiotic screen). Particulars: for fold increase in effect with AgSol vs antibiotic alone: Table 6, E. coli; for Antibiotic MIC, NB + AgSol1000: antibiotic in combination with AgSol1000 at ¼ × MIC silver; for Fold change (antibiotic MIC, NB vs NB + AgSol1000): dash = MIC unchanged. In kind it is cell-based, Escherichia coli. The procedure:
(§1) The MIC (Minimal Inhibitory Concentration) of a bacterium to a certain antimicrobial agent gives a quantitative estimate of the susceptibility. MIC is defined as the lowest concentration of antimicrobial agent required to inhibit growth of the organism. The principle is simple: Agar plates, tubes or microtitre trays with two-fold dilutions of antibiotics are inoculated with a standardized inoculum of the bacteria and incubated under standardized conditions following NCCLS guidelines. The next day, the MIC is recorded as the lowest concentration of antimicrobial agent with no visible growth. The MIC informs you about the degree of resistance and might give you important information about the resistance mechanism and the resistance genes involved. MIC-determination performed as agar dilution is regarded as the gold standard for susceptibility testing (Source: Global Salm-Surv—A global Salmonella surveillance and laboratory support project of the World Health Organization (4th Ed. April 2002, modified November 2010))
(§2) The Minimum Inhibitory Concentration (MIC) of nanosilver (silver) was determined by two-fold dilution series in NaCl free Nutrient Broth (Sigma-Aldrich) in 15 ml screw cap tubes. The tubes were incubated in the dark over night at 37° C. without shaking. The MIC was determined as the lowest concentration of nanosilver (silver) at which no visible growth was observed.
(§3) Antibiotic stock solutions were serially diluted in 2-fold steps in pre-warmed (37° C.) nutrient broth (NB) to prepare an antibiotic concentration gradient above and below the minimal inhibitory concentration (MIC) of antibiotic (Table 4). 50 μl of prepared dilutions were aliquoted into a 96-well round bottom plate (Nunc, Thermo Fisher) for the screening assay.
(§4) Silver formulation (AgSol1000 (particles with 19 Ag per silica particle), AgSol300 (particles with 6 Ag per silica particle, AgNO3), aluminum coated silica beads (159/500 (silica particles with aluminium silicate coating)) and uncoated silica beads (15/500) were diluted in pre-warmed (37° C.) NB. Bindzil®15/500 is an unmodified silica sol, whereas Bindzil®159/500 is a aluminosilicate modified silica sol. Bindzil® is sold by Akzo Nobel AB.
(§5) 40 μl of the prepared dilutions were added to the 96-well plate containing antibiotic gradient to reach the final silver concentration of ¼×MICAgSol (silver) (specific for the microorganism used) (Table 5).
(§6) Overnight (16-20 h) cultures of 3 biological replicates of the following microorganisms E. coli K-12 MG1655 (DA4201), E. coli K-12 MG1655 rpsL K42N (DA49828), Pseudomonas aeruginosa PAO1 (DA6215) or Staphylococcus aureus USA300 JE2 (DA28823) were grown in NB till saturation (37° C. incubator with 190 rpm shaking). Cultures were diluted in NB to 10^7 CFU/ml and 10 μl of the dilution were added to the 96-well plate containing antibiotic gradient and silver formulations or the bead controls to reach the final concentration of 10^5 CFU/well in 100 μl total volume per well. 3 technical replicates (3 wells) of specific antibiotic concentration in combination with silver and microorganism were used. A control plate containing bacterial cells mixed with only antibiotic gradient was always included too.
(§7) The prepared plate was incubated in 37° C. incubator without shaking in the dark for 16-20 h and the optical density (OD620) of each well was measured in plate reader Multiscan FC (Thermo Fisher).

For assay [2], the system named is Pseudomonas aeruginosa PAO1 (DA6215). The experiment in a line: AgSol-antibiotic synergy screening assay / MIC. It counts as cell-based. How it is done:
as §1, §2, §3, §4, §5, §6, §7

The subject of assay [3] is gentamicin-resistant P. aeruginosa (DA60255). Kind of assay: AgSol-antibiotic synergy screening assay / MIC, gentamicin-resistant strain. In kind it is cell-based, Pseudomonas aeruginosa. Particulars: AgSol1000 at 0.25×MIC; FIG. 9.
The subject of assay [4] is Pseudomonas aeruginosa PAO1 (DA6215). Kind of assay: Time-kill assay. It counts as cell-based. Particulars: for time-kill: effect of gentamicin in combination with AgSol: 0-48 h, FIGS. 8A, 8B. The procedure:
Antibiotic stock solutions were diluted in pre-warmed (37° C.) nutrient broth (NB) to prepare 2×MIC concentration (Table 4) of antibiotic in the final volume of 2 ml in 15 ml tubes (Sarstedt).
Silver formulation (AgSol1000, AgNO3) was diluted in pre-warmed (37° C.) NB and added to the tube containing antibiotic to reach the final silver concentration of ¼×MICAgsol (silver) (Table 5) in the final volume of 2 ml.
Overnight (16-20 h) cultures of 2 biological replicates of the following microorganisms Pseudomonas aeruginosa PAO1 (DA6215) or Staphylococcus aureus USA300 JE2 (DA28823) were grown in NB till saturation (37° C. incubator with 190 rpm shaking). Cultures were diluted (1/100) in pre-warmed (37° C.) NB and incubated in 37° C. incubator with 190 rpm shaking until they reached exponential growth phase (OD600˜0.2). Final concentration of approximately 10^6 CFU/ml of exponentially dividing cells was used in the total volume of 2 ml mixture of antibiotic and silver formulation. Control tubes with only bacterial cells or bacterial cells mixed with only antibiotic or only silver formulation were also used.
All tubes were incubated in 37° C. water bath with 150 rpm shaking and 100 μl samples were taken out at pre-determined time points for viable counts (2 technical replicates). CFU counts were normalized to the 0 h sample and were plotted as a function of time (h).
A “Time Kill” test was performed with S. aureus USA3000 JE2 and Fusidic acid (FUS) and Mupirocin (MUP) and with P. aeruginosa (PAO1) with gentamicin (GEN). From a stock solution with bacteria with controlled growth at 37° C. during 16 h, […] were prepared: • Bacterial cells • Bacterial cells+AgSol • Bacterial cells+AgNO3; • Bacterial cells+AgSol+antibiotic • Bacterial cells+AgNO3+antibiotic
Samples were taken after 0, 4, 8, 24 and 48 hours at 37° C. (incubation with shaking). The samples were plated for viable counts, CFU counts normalized to 0 h and plotted as a function of time.

In assay [5] the test system is E. coli K-12 MG1655 rpsL K42N (DA49828). Kind of assay: AgSol-antibiotic synergy screening assay / MIC. It counts as cell-based. Particulars: Escherichia coli. The procedure: as §1, §2, §3, §4, §5, §6, §7
Assay [6] relates to S. enterica Typhimurium LT2. The experiment in a line: AgSol-antibiotic synergy screening assay. In kind it is cell-based, Salmonella enterica. The conditions noted are these: Salmonella; FIGS. 2A-2F. How it is done:
as §3, §4, §5, §7

Read-outs that look alike come from different tables or passages of the source. Where only a bound is given, the exact number is not on record here.

Regarding Gentamicin, the “fold increase in effect with AgSol vs antibiotic alone” value in assay [1] (listed as Gentamycin) worked out at 17 fold. For the same compound, the MIC in assay [1] (antibiotic alone, E. coli (DA4201), values used for antibiotic gradient) was determined as 0.5 µg/mL; in assay [2] (antibiotic alone, P. aeruginosa (DA6215), values used for antibiotic gradient), 0.375 µg/mL. In assay [1] (antibiotic alone, nutrient broth), the “Antibiotic MIC, NB” value is 0.5 µg/mL. Also, the “Antibiotic MIC, NB + AgSol1000” value in assay [1] (nutrient broth) is 0.03 µg/mL. Also, the “Fold change (antibiotic MIC, NB vs NB + AgSol1000)” value in assay [1] is 17x. Moreover, in assay [2] (P. aeruginosa (PAO1), FIG. 3), the “synergistic effect of gentamicin in combination with AgSol” value is given as −50%. Moreover, the “synergistic anti-bacterial effect of antibiotic in combination with colloidal dispersion” value in assay [2] (P. aeruginosa, FIGS. 3, 8, 9) is on record as “synergistic anti-bacterial effect”. Further, in assay [2] (gentamicin 0.19 ug/ml with silver), the “effect on bacteria (OD620) of combination silver/gentamicin” value is given as “complete killing of bacteria”. For the same compound, the “effect on OD620 of gentamicin alone” value in assay [2] (gentamicin 0.19 ug/ml without silver) is “almost no reduction in OD620”. In addition, the “anti-bacterial effect of AgSol and gentamycin on resistant strain” value in assay [3] is reported as “confirmed the anti-bacterial effect”. In addition, in assay [4], the “time to almost complete killing (bactericidal effect), gentamicin in combination with AgSol” value was at most 24 h. The results for the “time-kill: effect of gentamicin in combination with AgSol” value in assay [4] and in assay [4] (listed as GEN) were “no bacterial growth is visible within 48 hours” and “even stronger bactericidal effect”, respectively.
`[H]/N=C(/N)N[C@H]1[C@H](O)[C@@H](O)[C@H](O[C@@H]2O[C@@H](C)[C@](O)(C=O)[C@H]2O[C@@H]2O[C@@H](CO)[C@H](O)[C@@H](O)[C@@H]2NC)[C@@H](N/C(N)=N\[H])[C@@H]1O` [Streptomycin]: the minimum inhibitory concentration (MIC) amounted to 0.5 µg/mL in assay [1] (Escherichia coli, MG1655, antibiotic alone, E. coli (DA4201), values used for antibiotic gradient, read-out: MIC); 0.5 µg/mL in assay [1] (Escherichia coli, MG1655, antibiotic alone, nutrient broth, read-out: Antibiotic MIC, NB); 2000 µg/mL in assay [5]. In assay [1], the “fold increase in effect with AgSol vs antibiotic alone” value came out at 17 fold. Moreover, the “Antibiotic MIC, NB + AgSol1000” value in assay [1] (nutrient broth) came to 0.03 µg/mL. Besides, in assay [1], the “Fold change (antibiotic MIC, NB vs NB + AgSol1000)” value stood at 17x. In assay [1] (vs antibiotic alone, E. coli MG 1655 K-12), the “synergistic antibacterial effect of antibiotic in combination with AgSol” value was “markedly improved synergistic effect”. Moreover, the “synergetic effect of antibiotic in combination with silver” value in assay [6] was “stronger synergetic effect”.
